{
  "source": "patent US4044137A",
  "about": "“2-(Phenylthiopropyl)-5-aryl-1,2,3,4-tetrahydro-γ-carbolines” (Pfizer Inc., priority 1976, dated 1977)",
  "test_system": "amphetamine-induced symptoms",
  "assay": "antagonism of amphetamine-induced symptoms (cage movement) in rats",
  "assay_type": "in vivo",
  "conditions": "test compound i.p., 1 hr., d-amphetamine sulfate 5 mg./kg. i.p. given 1 hr. after compound, rated one hour after amphetamine",
  "description": "The tranquilizing agents of the present invention are characterized by relief of such schizophrenic manifestations in humans as hallucinations, hostility, suspiciousness, emotional or social withdrawal, anxiety, agitation and tension. Standard procedures of detecting and comparing tranquilizing activity of compounds in this series and for which there is an excellent correlation with human efficacy is the antagonism of amphetamine-induced symptoms in rats test, as taught by A. Weissman, et al., J. Pharmacol. Exp. Ther., 151, 339 (1966) and by Quinton, et al., Nature, 200, 178 (1963).\nThe effects of the compounds of the present invention on prominent amphetamine-induced symptoms were studied in rats by a rating scale modeled after the one reported by Quinton and Halliwell and by Weissman. Groups of five rats were placed in a covered plastic cage measuring approximately 26 × 42 × 16 cm. After a brief period of acclimation in the cage, the rats in each group were treated intraperitoneally (i.p.) with the test compound. […] On the basis of dose-response data after amphetamine it was possible to determine the effective dose of the compound necessary to antagonize or block the characteristic amphetamine behavior of cage movement for fifty percent of the rats tested (ED50). […]",
  "note": "Where a name gives a salt, the structure may show the parent alone.",
  "data": [
    {"molecule": "Fc1ccc(SCCCN2CCc3c(c4cc(F)ccc4n3-c3ccc(F)cc3)C2)cc1", "note": "[F F F 0, 8-Fluoro-5-(p-fluorophenyl)-2-[3-(p-fluorophenylthio)propyl]-1,2,3,4-tetrahydro-γ-carboline hydrochloride]", "values": [
      {"measurement": "ED50 (effective dose to antagonize or block the characteristic amphetamine behavior of cage movement for fifty percent of the rats tested)", "value": 32, "unit": "mg/kg"}
    ]},
    {"molecule": "[O-][S+](CCCN1CCc2c(c3cc(F)ccc3n2-c2ccc(F)cc2)C1)c1ccc(F)cc1", "note": "(centres unmarked) [F F F 1, 8-fluoro-5-(p-fluorophenyl)-2-[3-(p-fluorophenylsulfinyl)propyl]-1,2,3,4-tetrahydro-γ-carboline hydrochloride]", "values": [
      {"measurement": "ED50 (effective dose to antagonize or block the characteristic amphetamine behavior of cage movement for fifty percent of the rats tested)", "value": 10, "unit": "mg/kg"}
    ]}
  ]
}
